The text below walks through data of ChEMBL document CHEMBL5442175, “EUbOPEN Chemogenomics Library - PDSP Secondary Binding” (2024).

For assay [1], the target named is T1, Muscarinic acetylcholine receptor M5 (Homo sapiens, UniProt P08912).
T1 sequence (P08912 whole entry): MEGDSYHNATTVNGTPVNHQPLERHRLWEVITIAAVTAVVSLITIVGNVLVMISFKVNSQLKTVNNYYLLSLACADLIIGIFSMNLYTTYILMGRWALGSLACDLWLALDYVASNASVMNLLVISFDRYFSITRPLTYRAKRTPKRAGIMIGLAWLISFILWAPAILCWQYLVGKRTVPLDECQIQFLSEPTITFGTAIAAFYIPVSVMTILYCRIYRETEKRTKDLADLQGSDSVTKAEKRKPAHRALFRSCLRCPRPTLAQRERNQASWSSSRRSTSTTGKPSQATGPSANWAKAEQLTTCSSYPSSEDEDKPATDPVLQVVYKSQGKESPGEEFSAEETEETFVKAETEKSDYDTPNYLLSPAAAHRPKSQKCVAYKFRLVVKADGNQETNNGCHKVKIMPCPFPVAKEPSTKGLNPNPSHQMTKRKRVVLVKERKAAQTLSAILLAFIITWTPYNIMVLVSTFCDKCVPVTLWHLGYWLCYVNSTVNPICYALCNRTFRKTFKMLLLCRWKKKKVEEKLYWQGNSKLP
Kind of assay: PDSP Secondary Binding target: CHRM5 - Compounds are tested at 10 uM concentration, plate are incubated at room temperature in the dark for 90 minutes. Reaction are stopped by vacuum filtration onto 0.3% polyethyleneimine soaked filter mats using Filtermate harvester. Scintillation cocktail is then melted onto microwave-dried filters on a hot plate and the radio activity is counted in Microbia counter.

The target of a further assay is Histamine H1 receptor (Homo sapiens, UniProt P35367). As to the kind of experiment: PDSP Secondary Binding target: HRH1 - Compounds are tested at 10 uM concentration, plate are incubated at room temperature in the dark for 90 minutes. Reaction are stopped by vacuum filtration onto 0.3% polyethyleneimine soaked filter mats using Filtermate harvester. Scintillation cocktail is then melted onto microwave-dried filters on a hot plate and the radio activity is counted in Microbia counter.
Chain of Histamine H1 receptor (P35367 whole entry): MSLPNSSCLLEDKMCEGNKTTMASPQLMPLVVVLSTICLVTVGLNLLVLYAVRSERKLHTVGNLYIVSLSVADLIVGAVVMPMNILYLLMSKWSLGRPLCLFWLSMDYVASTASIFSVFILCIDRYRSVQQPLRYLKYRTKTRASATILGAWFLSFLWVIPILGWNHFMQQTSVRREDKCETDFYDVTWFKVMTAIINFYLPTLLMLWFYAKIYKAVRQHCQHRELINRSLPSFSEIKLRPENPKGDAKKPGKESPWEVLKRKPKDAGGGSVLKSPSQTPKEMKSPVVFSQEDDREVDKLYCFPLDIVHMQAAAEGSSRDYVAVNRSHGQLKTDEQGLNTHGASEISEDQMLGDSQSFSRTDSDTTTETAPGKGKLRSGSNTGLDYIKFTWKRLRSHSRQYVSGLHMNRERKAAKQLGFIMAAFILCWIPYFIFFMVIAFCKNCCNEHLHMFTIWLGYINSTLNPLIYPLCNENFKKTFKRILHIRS

For another assay, the target named is Mu-type opioid receptor (Homo sapiens, UniProt P35372). As to the kind of experiment: PDSP Secondary Binding target: OPRM1 - Compounds are tested at 10 uM concentration, plate are incubated at room temperature in the dark for 90 minutes. Reaction are stopped by vacuum filtration onto 0.3% polyethyleneimine soaked filter mats using Filtermate harvester. Scintillation cocktail is then melted onto microwave-dried filters on a hot plate and the radio activity is counted in Microbia counter.
Chain of Mu-type opioid receptor (P35372 whole entry): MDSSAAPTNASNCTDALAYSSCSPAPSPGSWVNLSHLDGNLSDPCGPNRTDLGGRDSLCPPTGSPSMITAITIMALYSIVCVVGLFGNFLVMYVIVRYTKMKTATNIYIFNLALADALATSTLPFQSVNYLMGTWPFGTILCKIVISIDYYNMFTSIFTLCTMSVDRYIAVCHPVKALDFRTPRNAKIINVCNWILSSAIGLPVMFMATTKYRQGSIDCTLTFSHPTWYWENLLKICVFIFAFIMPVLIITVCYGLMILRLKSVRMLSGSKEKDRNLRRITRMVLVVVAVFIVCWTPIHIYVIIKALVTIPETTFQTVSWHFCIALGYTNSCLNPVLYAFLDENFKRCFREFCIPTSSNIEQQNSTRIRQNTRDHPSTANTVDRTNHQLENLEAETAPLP

For assay [2], the target named is 5-hydroxytryptamine receptor 2A (Homo sapiens, UniProt P28223). Kind of assay: PDSP Secondary Binding target: HTR2A - Compounds are tested at 10 uM concentration, plate are incubated at room temperature in the dark for 90 minutes. Reaction are stopped by vacuum filtration onto 0.3% polyethyleneimine soaked filter mats using Filtermate harvester. Scintillation cocktail is then melted onto microwave-dried filters on a hot plate and the radio activity is counted in Microbia counter.
Chain of 5-hydroxytryptamine receptor 2A (P28223 whole entry): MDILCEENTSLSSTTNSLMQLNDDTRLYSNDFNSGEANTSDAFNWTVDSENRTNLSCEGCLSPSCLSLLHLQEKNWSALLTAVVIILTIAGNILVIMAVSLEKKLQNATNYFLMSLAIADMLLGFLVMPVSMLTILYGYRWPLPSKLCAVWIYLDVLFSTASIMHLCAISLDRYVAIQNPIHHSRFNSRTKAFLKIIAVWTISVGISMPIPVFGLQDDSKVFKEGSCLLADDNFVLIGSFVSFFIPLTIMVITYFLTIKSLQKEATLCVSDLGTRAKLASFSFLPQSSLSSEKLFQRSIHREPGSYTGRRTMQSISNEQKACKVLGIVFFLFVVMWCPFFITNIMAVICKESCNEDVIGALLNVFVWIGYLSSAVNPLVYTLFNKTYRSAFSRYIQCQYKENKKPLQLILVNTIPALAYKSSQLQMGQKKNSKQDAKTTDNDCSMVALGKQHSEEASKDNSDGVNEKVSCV

For assay [3], the target named is Sigma non-opioid intracellular receptor 1 (Homo sapiens, UniProt Q99720). Kind of assay: PDSP Secondary Binding target: SIGMAR1 - Compounds are tested at 10 uM concentration, plate are incubated at room temperature in the dark for 90 minutes. Reaction are stopped by vacuum filtration onto 0.3% polyethyleneimine soaked filter mats using Filtermate harvester. Scintillation cocktail is then melted onto microwave-dried filters on a hot plate and the radio activity is counted in Microbia counter.
Chain of Sigma non-opioid intracellular receptor 1 (Q99720 whole entry): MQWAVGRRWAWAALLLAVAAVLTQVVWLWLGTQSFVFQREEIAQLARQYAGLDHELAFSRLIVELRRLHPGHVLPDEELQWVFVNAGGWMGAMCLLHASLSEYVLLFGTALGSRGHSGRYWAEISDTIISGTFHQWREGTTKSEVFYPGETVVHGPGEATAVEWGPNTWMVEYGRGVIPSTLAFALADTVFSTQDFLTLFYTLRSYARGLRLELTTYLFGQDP

Assay [4] concerns the target T2, Alpha-1D adrenergic receptor (Homo sapiens, UniProt P25100).
T2 sequence (P25100 whole entry): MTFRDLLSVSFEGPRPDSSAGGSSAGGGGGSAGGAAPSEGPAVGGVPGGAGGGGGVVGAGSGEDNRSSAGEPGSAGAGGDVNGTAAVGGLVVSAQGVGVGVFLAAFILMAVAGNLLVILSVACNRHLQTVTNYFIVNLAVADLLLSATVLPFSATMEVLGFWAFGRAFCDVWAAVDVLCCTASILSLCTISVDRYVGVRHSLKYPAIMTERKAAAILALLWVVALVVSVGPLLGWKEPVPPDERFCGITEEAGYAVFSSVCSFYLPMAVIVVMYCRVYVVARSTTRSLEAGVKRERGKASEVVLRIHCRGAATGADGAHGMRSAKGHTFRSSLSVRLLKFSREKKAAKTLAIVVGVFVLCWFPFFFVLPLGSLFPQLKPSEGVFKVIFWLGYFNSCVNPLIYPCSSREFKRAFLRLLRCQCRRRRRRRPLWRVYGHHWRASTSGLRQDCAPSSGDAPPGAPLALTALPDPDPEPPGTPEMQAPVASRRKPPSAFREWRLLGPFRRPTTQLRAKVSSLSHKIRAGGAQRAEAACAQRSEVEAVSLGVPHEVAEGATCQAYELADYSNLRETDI
Kind of assay: PDSP Secondary Binding target: ADRA1D - Compounds are tested at 10 uM concentration, plate are incubated at room temperature in the dark for 90 minutes. Reaction are stopped by vacuum filtration onto 0.3% polyethyleneimine soaked filter mats using Filtermate harvester. Scintillation cocktail is then melted onto microwave-dried filters on a hot plate and the radio activity is counted in Microbia counter.

Assay [5] has as its target Sigma intracellular receptor 2 (Homo sapiens, UniProt Q5BJF2). As to the kind of experiment: PDSP Secondary Binding target: TMEM97 - Compounds are tested at 10 uM concentration, plate are incubated at room temperature in the dark for 90 minutes. Reaction are stopped by vacuum filtration onto 0.3% polyethyleneimine soaked filter mats using Filtermate harvester. Scintillation cocktail is then melted onto microwave-dried filters on a hot plate and the radio activity is counted in Microbia counter.

The target in assay [6] is T3, 5-hydroxytryptamine receptor 2C (Homo sapiens, UniProt P28335).
T3 sequence (P28335 whole entry): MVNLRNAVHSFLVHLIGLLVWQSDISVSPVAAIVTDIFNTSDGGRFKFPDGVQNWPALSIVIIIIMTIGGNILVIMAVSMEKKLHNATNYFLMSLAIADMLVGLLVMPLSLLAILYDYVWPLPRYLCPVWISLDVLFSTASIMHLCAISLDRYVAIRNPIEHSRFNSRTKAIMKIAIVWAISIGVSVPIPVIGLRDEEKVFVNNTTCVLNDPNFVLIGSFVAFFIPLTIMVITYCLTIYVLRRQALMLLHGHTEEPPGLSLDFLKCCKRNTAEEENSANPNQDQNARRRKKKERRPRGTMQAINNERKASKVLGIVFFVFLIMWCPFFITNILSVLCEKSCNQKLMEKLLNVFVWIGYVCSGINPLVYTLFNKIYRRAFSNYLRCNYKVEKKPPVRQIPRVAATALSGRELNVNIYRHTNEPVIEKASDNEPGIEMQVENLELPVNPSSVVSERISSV
As to the kind of experiment: PDSP Secondary Binding target: HTR2C - Compounds are tested at 10 uM concentration, plate are incubated at room temperature in the dark for 90 minutes. Reaction are stopped by vacuum filtration onto 0.3% polyethyleneimine soaked filter mats using Filtermate harvester. Scintillation cocktail is then melted onto microwave-dried filters on a hot plate and the radio activity is counted in Microbia counter.

In assay [7] the target is T4, Alpha-2B adrenergic receptor (Homo sapiens, UniProt P18089).
T4 sequence (P18089 whole entry): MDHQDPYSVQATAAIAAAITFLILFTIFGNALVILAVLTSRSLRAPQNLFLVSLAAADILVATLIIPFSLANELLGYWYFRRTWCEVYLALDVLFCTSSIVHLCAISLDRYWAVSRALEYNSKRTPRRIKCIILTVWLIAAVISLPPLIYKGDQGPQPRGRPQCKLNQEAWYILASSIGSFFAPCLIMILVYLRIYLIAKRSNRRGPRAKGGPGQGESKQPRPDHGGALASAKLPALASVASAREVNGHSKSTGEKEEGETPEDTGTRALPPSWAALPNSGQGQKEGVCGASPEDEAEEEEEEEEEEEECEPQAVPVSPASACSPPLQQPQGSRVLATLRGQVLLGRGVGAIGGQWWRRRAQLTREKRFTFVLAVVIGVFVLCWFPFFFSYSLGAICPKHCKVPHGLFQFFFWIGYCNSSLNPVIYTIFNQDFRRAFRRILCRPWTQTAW
Kind of assay: PDSP Secondary Binding target: ADRA2B - Compounds are tested at 10 uM concentration, plate are incubated at room temperature in the dark for 90 minutes. Reaction are stopped by vacuum filtration onto 0.3% polyethyleneimine soaked filter mats using Filtermate harvester. Scintillation cocktail is then melted onto microwave-dried filters on a hot plate and the radio activity is counted in Microbia counter.

Assay [8] addresses T5, Alpha-2C adrenergic receptor (Homo sapiens, UniProt P18825).
T5 sequence (P18825 whole entry): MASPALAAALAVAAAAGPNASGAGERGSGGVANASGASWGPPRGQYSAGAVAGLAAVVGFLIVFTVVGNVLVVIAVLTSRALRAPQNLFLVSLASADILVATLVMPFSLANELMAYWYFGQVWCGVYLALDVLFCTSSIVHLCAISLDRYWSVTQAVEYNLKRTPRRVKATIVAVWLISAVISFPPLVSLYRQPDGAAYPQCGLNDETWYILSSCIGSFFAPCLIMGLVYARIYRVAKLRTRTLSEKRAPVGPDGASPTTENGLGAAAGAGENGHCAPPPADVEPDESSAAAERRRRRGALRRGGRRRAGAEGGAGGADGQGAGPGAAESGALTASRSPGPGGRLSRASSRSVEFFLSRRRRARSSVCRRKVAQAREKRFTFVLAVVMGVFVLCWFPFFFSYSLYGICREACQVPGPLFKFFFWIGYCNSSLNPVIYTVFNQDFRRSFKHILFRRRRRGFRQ
Kind of assay: PDSP Secondary Binding target: ADRA2C - Compounds are tested at 10 uM concentration, plate are incubated at room temperature in the dark for 90 minutes. Reaction are stopped by vacuum filtration onto 0.3% polyethyleneimine soaked filter mats using Filtermate harvester. Scintillation cocktail is then melted onto microwave-dried filters on a hot plate and the radio activity is counted in Microbia counter.

Another assay concerns the target D(3) dopamine receptor (Homo sapiens, UniProt P35462). As to the kind of experiment: PDSP Secondary Binding target: DRD3 - Compounds are tested at 10 uM concentration, plate are incubated at room temperature in the dark for 90 minutes. Reaction are stopped by vacuum filtration onto 0.3% polyethyleneimine soaked filter mats using Filtermate harvester. Scintillation cocktail is then melted onto microwave-dried filters on a hot plate and the radio activity is counted in Microbia counter.

Assay [9] deals with 5-hydroxytryptamine receptor 5A (Homo sapiens, UniProt P47898). Kind of assay: PDSP Secondary Binding target: HTR5A - Compounds are tested at 10 uM concentration, plate are incubated at room temperature in the dark for 90 minutes. Reaction are stopped by vacuum filtration onto 0.3% polyethyleneimine soaked filter mats using Filtermate harvester. Scintillation cocktail is then melted onto microwave-dried filters on a hot plate and the radio activity is counted in Microbia counter.
Chain of 5-hydroxytryptamine receptor 5A (P47898 whole entry): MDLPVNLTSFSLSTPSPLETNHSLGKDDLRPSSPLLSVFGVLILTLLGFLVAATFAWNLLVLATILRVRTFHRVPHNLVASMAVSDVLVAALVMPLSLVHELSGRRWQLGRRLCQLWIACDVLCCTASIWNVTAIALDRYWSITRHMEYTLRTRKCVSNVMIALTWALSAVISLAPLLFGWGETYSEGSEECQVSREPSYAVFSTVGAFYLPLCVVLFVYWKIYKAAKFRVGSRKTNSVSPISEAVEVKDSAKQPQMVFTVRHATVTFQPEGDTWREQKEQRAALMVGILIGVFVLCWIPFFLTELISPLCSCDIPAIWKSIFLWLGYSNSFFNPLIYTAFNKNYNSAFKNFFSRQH

Assay [10] deals with 5-hydroxytryptamine receptor 7 (Homo sapiens, UniProt P34969). As to the kind of experiment: PDSP Secondary Binding target: HTR7 - Compounds are tested at 10 uM concentration, plate are incubated at room temperature in the dark for 90 minutes. Reaction are stopped by vacuum filtration onto 0.3% polyethyleneimine soaked filter mats using Filtermate harvester. Scintillation cocktail is then melted onto microwave-dried filters on a hot plate and the radio activity is counted in Microbia counter.
Chain of 5-hydroxytryptamine receptor 7 (P34969 whole entry): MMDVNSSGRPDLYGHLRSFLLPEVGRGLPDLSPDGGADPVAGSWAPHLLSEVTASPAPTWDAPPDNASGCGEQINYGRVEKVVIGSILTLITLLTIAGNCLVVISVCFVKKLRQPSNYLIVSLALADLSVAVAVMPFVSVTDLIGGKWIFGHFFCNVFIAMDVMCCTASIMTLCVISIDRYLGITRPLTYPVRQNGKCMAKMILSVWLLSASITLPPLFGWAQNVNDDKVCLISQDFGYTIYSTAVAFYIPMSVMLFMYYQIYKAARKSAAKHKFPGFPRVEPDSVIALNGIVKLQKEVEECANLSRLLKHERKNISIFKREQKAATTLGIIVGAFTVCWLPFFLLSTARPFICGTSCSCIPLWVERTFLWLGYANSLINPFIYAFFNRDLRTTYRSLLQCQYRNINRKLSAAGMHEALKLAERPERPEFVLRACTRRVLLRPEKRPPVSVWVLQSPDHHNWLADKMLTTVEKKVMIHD

For assay [11], the target named is Kappa-type opioid receptor (Homo sapiens, UniProt P41145). As to the kind of experiment: PDSP Secondary Binding target: OPRK1 - Compounds are tested at 10 uM concentration, plate are incubated at room temperature in the dark for 90 minutes. Reaction are stopped by vacuum filtration onto 0.3% polyethyleneimine soaked filter mats using Filtermate harvester. Scintillation cocktail is then melted onto microwave-dried filters on a hot plate and the radio activity is counted in Microbia counter.
Chain of Kappa-type opioid receptor (P41145 whole entry): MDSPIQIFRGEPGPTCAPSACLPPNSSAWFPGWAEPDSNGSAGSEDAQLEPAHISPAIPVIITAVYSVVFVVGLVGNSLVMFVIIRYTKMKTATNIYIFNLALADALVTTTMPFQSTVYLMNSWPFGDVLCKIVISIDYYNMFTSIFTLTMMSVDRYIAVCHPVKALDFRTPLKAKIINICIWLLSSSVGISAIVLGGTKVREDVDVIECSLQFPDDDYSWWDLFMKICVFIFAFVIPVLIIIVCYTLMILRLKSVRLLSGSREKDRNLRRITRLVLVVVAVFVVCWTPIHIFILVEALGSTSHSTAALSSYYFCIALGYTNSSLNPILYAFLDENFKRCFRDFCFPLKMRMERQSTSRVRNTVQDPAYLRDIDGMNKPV

In assay [12] the target is 5-hydroxytryptamine receptor 2B (Homo sapiens, UniProt P41595). Kind of assay: PDSP Secondary Binding target: HTR2B - Compounds are tested at 10 uM concentration, plate are incubated at room temperature in the dark for 90 minutes. Reaction are stopped by vacuum filtration onto 0.3% polyethyleneimine soaked filter mats using Filtermate harvester. Scintillation cocktail is then melted onto microwave-dried filters on a hot plate and the radio activity is counted in Microbia counter.
Chain of 5-hydroxytryptamine receptor 2B (P41595 whole entry): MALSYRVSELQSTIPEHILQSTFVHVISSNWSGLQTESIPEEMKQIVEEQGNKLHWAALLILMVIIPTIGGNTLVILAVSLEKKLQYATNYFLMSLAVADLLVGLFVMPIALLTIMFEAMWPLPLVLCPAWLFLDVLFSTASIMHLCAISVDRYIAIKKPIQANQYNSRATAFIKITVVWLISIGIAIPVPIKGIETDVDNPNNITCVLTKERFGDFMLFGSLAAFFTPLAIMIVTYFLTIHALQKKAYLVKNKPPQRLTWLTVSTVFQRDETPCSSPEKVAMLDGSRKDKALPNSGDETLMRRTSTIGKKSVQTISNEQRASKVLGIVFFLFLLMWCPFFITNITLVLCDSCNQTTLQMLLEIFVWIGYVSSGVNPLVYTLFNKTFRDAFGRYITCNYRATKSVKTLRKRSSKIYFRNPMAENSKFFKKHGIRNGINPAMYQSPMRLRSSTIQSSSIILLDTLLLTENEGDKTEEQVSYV

The next assay deals with Translocator protein (Homo sapiens, UniProt P30536). As to the kind of experiment: PDSP Secondary Binding target: TSPO - Compounds are tested at 10 uM concentration, plate are incubated at room temperature in the dark for 90 minutes. Reaction are stopped by vacuum filtration onto 0.3% polyethyleneimine soaked filter mats using Filtermate harvester. Scintillation cocktail is then melted onto microwave-dried filters on a hot plate and the radio activity is counted in Microbia counter.
Chain of Translocator protein (P30536 whole entry): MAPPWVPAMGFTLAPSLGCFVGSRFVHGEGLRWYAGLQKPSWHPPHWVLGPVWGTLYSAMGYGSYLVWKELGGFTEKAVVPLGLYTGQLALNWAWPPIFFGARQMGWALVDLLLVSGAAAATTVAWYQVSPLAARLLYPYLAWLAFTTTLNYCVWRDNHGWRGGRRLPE

Some results are limits rather than exact numbers.

Chain of D(3) dopamine receptor (P35462 whole entry): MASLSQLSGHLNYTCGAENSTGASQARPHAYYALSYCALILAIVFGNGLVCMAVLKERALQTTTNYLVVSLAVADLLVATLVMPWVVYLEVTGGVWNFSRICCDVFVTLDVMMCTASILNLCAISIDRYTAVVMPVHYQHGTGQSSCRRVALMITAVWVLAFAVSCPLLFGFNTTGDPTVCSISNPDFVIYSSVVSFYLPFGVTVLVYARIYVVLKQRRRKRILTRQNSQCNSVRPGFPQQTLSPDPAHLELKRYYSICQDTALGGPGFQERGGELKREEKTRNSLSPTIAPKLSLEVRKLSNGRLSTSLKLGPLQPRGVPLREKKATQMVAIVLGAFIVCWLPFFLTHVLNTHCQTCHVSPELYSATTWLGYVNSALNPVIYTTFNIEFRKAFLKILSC
Chain of Sigma intracellular receptor 2 (Q5BJF2 whole entry): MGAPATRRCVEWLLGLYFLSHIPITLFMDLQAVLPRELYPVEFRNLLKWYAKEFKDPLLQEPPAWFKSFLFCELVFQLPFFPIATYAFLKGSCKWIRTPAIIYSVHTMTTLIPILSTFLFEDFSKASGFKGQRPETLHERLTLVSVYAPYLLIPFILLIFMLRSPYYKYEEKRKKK

By Ki is commonly meant the equilibrium dissociation constant of an inhibitor or competing ligand from its target. Read a low Ki as higher affinity. Consider `Cc1nnn(-c2ccc(-c3ccc(C4(C(=O)O)CC4)cc3)cc2)c1NC(=O)O[C@H](C)c1ccccc1`, for which the Ki in assay [1] was more than 10000 nM; on Histamine H1 receptor, 5550 nM.

For `C/C(=N\NC(=O)[C@@H]1C(=O)NC[C@H]1c1ccccc1)c1cccc(Br)c1`, the Ki is more than 10000 nM at Mu-type opioid receptor, 1980 nM at Histamine H1 receptor and 3880 nM in assay [2].

On to `O=C(O)C1CN(Cc2ccc(OCc3ccc(Cl)c(Cl)c3)cc2)C1`, for which the Ki in assay [3] was 488 nM; at Histamine H1 receptor, more than 10000 nM; in [2], 4610 nM.

As for `CCCn1c(=O)c2[nH]c(-c3cnn(Cc4cccc(C(F)(F)F)c4)c3)nc2n(CC)c1=O` [GS 6201], the Ki in assay [4] was more than 10000 nM.

With `Cc1ccccc1C(=O)Nc1ccc(C(=O)N2CCCC(O)c3cc(Cl)ccc32)c(C)c1` (configuration not stated) [TOLVAPTAN], the Ki in [5] amounted to 1030 nM; at Mu-type opioid receptor, 410 nM; in [6] it was 4860 nM; on Histamine H1 receptor it was 6690 nM.

For `NC[C@H](O)c1ccc(O)c(O)c1`, the Ki in assay [7] worked out at 235 nM; in assay [8] it was 386 nM.

For the molecule `CSc1ccc(C(=O)N[C@@H]2CCCC[C@@H]2NC(=O)CNC(=O)c2cc(C(F)(F)F)ccc2NC(=O)NC(C)C)cc1`, the Ki was 1190 nM at D(3) dopamine receptor and 1610 nM on Histamine H1 receptor.

Take `CNc1nc(NCc2ccc(NS(C)(=O)=O)cc2Cl)cc(-c2ccccn2)n1`: the Ki in assay [9] worked out at 2110 nM; in assay [10], 803 nM; in assay [11], 998 nM; in [3], 365 nM; in assay [12], 647 nM; in [8] it was 1720 nM. The Ki worked out at 1020 nM at D(3) dopamine receptor, 2220 nM in [6], 2120 nM in [2] and 1660 nM on Translocator protein.
